For series [1], the system named is cerebral hypoxia. As to the kind of experiment: Prolonging effect on the persistent time of gasping movements in complete ischemia. The format is in vivo, mice (STD-ddY strain, male). As to conditions: for ED (15% prolongation): Mus musculus, po, read-out: Complete ischemia PD15 (dose which prolonged the persistent time of gasping movements by 15%). As for the experimental part: (§1) Protective effect on cerebral hypoxia
(1) Prolonging effect on the persistent time of gasping movements in complete ischemia
This test was carried out according to the method described in Arch. int. Pharmacodyn., 233, 136-144 (1978).
Male mice of STD-ddY strain weighing 22-26 g were used in groups of 5 animals. A prescribed amount of test compounds, suspended in a 0.5% aqueous tragacanth solution, was orally administered to mice at a volume of 0.1 ml per 10 g of body weight. Two hours or one hour (for carbamazepine) after the administration of test compounds, the necks of the animals were cut with scissors for decapitation. The persistent time of gasping movements in the isolated heads was measured. To control group was orally administered only the same volume of a 0.5% aqueous tragacanth solution. The PD15 was calculated from the dose-activity relationship. The PD15 means the dose of a test compound which prolonged the persistent time of gasping movements by 15% in comparison with that of control group.

In series [2] the test system is cerebral hypoxia. Nature of the series: Prolonging effect on survival time of mice in normobaric hypoxia. Type of series: in vivo, mice (STD-ddY strain, male). As to conditions: Mus musculus, po, read-out: Normobaric hypoxia PD30 (dose which prolonged the survival time by 30%). As for the experimental part:
as §1
(2) Prolonging effect on survival time of mice in normobaric hypoxia
This test was carried out according to the method described in Naunyn-Schmiedeberg's Arch. Pharmacol., 334, 282-289 (1986).
Male mice of STD-ddY strain weighing […] were used in groups of 5 animals. A prescribed amount of test compounds, suspended in a 0.5% aqueous tragacanth solution, was orally administered to mice at a volume of 0.1 ml per 10 g of body weight. Two hours or one hour (for carbamazepine) after the administration of test compounds, each animal was taken in a 2.5-liter plastic chamber, and a mixed gas of 4% oxygen and 96% nitrogen was passed through the chamber at a rate of 4 liters/minute. There was measured the time to the death (respiratory cessation) of the animal. To control group was orally administered only the same volume of a 0.5% aqueous tragacanth solution. The PD30 was calculated from the dose-activity relationship. The PD30 means the dose of a test compound which prolonged the survival time by 30% in comparison with that of control group.

Series [3] has as its system delayed neuronal death in the gerbil hippocampal CA1 subfield. As to the kind of experiment: Protective effect on delayed neuronal death in the gerbil hippocampus following a transient ischemia. The format is in vivo, Mongolian gerbils (male). As to conditions: p.o.; for CA1 neuronal density: ± S.E., 5 min occlusion, 4 days after. How it is done: Protective effect on delayed neuronal death in the gerbil hippocampus following a transient ischemia
This test was carried out according to the method described in Brain Res., 239, 57-69 (1982).
Male Mongolian gerbils weighing 65-85 g were used in groups of 5 or 6 animals. A prescribed amount of test compounds, suspended in a 0.5% aqueous tragacanth solution, was orally administered to animals at a volume of 0.2 ml per 100 g of body weight. To control group was orally administered only the same volume of 0.5% aqueous tragacanth solution. One hour after the administration of test compounds, the necks of the gerbils were opened by a mid line incision under ether anesthesia, and then the bilateral common carotid arteries were exposed and occluded with Zen clips to block the blood flow. After 5 minutes, the clips were released and the blood flow was restored. Animals for the sham-operated group were operated in the same manner as above except that the occlusion of the carotid arteries. After 4 days, the animals were anesthetized with pentobarbital and fixed by transcardiac perfusion with a fixative solution containing 2.5% glutaraldehyde and 2% formaldehyde in 0.1M phosphate buffer (pH 7.4) at a pressure of 120 cm H2 O, and then the brains were removed. After the isolated brains were kept in the same fixative solution as above overnight, they were cut into coronal sections which contained the hippocampal area 0.5-1.0 mm posterior to the most rostral tip of the hippocampus or 1.4-1.9 mm posterior to bregma. Dissected brains were dehydrated and then embedded in paraffin. From the paraffin block, 4 μm-thin sections were prepared and subjected to hematoxylin-eosin staining.
The number of morphologically intact neurons remaining in the hippocampal CA1 subfield of the above tissue specimen was measured using a computer-image digitizer (Image Research Inc., Canada, MCID model) at a magnification of 200×, and neuronal density per mm^2 area of the right and left hippocampus, namely, the CA1 neuronal density, was calculated.
The value of the CA1 neuronal density in the table was calculated based on the average of the numbers of the remaining neurons in the right and left hippocampus of each animal. Student's t-test was used for the statistical analysis.

A short description of series [4]: Hypnonarcotic activity (loss of righting reflex). On the set-up: species or system mice (STD-ddY strain, male). As to conditions: mouse, in vivo, po. How it is done:
(§2) This test was carried out according to the method described in Japan. J. Pharmacol., 13, 259-273 (1963).
(§3) Male mice of STD-ddY strain weighing 22-26 g were used in groups of 5-10 animals. A prescribed amount of test compounds, suspended in a 0.5% aqueous tragacanth solution, was orally administered to mice at a volume of 0.1 ml per 10 g of body weight. […] The HD50 was calculated by Probit method. The HD50 means the dose of a test compound which produced hypnonarcotic effect in 50% of animals.

Series [5] deals with mice. As to the kind of experiment: Hypnonarcotic activity (loss of righting reflex). As to conditions: mouse, in vivo, po, 200 mg/kg. More on the design: species or system mice (STD-ddY strain, male). How it is done: as §2, §3
For series [6] the following is noted: Arch. int. Pharmacodyn., 286, 282-298 (1987); cited from earlier work.
A short description of series [7]: in vivo. The format is in vivo. As to conditions: mouse, in vivo, po; mice, p.o.; mortality observed for 7 days; Probit method; read-out: Acute toxicity LD50. How it is done:
(§4) Male mice of STD-ddY strain weighing 22-26 g were used in groups of 5-10 animals. A prescribed amount of test compounds, suspended in a 0.5% aqueous tragacanth solution, was orally administered to mice at a volume of 0.2 ml per 10 g of body weight.

Series [8] deals with mice. As to the kind of experiment: in vivo. Type of series: in vivo. As to conditions: p.o. As for the experimental part:
as §4

[9] abbreviates: mice, p.o., 2 h (1 h for carbamazepine) after administration.
The mark [10] stands for this setting: mice, p.o., 4% oxygen/96% nitrogen, 2 h (1 h for carbamazepine) after administration.

Like-named read-outs stand apart in the source and are kept apart here.

Take `O=C1NC(=O)C(c2ccccc2)(c2ccccc2)N1` [Phenytoin]: in series [1] (setting [9]), the ED (15% prolongation) worked out at 5.5 mg/kg. Further, the ED (30% prolongation) in series [2] (setting [10]) came out at 22.7 mg/kg. Further, the CA1 neuronal density in series [3] (30 mg/kg) was 228 ± 87 number of cells/mm^2; in series [3] (100 mg/kg), 1464 ± 503 number of cells/mm^2. For the same compound, the “protective effect on delayed neuronal death (in words)” value (from here on “protective effect … (in words)”) in series [3] (100 mg/kg) is listed as “relatively weak protective effect”. Also, the TD50 in series [4] was above 200 mg/kg. Further, in series [5], the “Clonic convulsion and death” value is “convulsion in all mice and of death in some mice”. The “effect against cerebral hypoxia (in words)” value in series [6] is reported as “effective against cerebral hypoxia”.

As to `CCC1(c2ccccc2)C(=O)NC(=O)NC1=O` [Phenobarbital], in series [1], the ED (15% prolongation) is 15 mg/kg. Also, in series [2], the ED (30% prolongation) was 26.8 mg/kg. For the same compound, the LD50 (commonly the dose at which mortality reaches 50%) at 168 h in series [7] came to 201 mg/kg.

Regarding `NC(=O)N1c2ccccc2C=Cc2ccccc21` [Carbamazepine], the ED (15% prolongation) in series [1] (setting [9]) stood at 5.5 mg/kg. Also, in series [2] (setting [10]), the ED (30% prolongation) worked out at 19.6 mg/kg. Besides, the CA1 neuronal density is 482 ± 272 number of cells/mm^2 in series [3] (10 mg/kg), 932 ± 353 number of cells/mm^2 in series [3] (30 mg/kg) and 1235 ± 330 number of cells/mm^2 in series [3] (100 mg/kg). Also, the “protective effect … (in words)” value in series [3] (100 mg/kg) was “relatively weak protective effect”. The TD50 in series [4] (mice, p.o., righting reflex lost for 60 minutes or more, Probit method, read-out: Hypnonarcotic activity HD50 (dose which produced hypnonarcotic effect in 50% of animals)) came out at 345 mg/kg. The “effect against cerebral hypoxia (in words)” value in series [6] was “effective against cerebral hypoxia”.

As for `NS(=O)(=O)Cc1noc2ccccc12` [The active compound of the invention, 3-Sulfamoylmethyl-1,2-benzisoxazole], the ED (15% prolongation) in series [1] came out at 6 mg/kg. In series [1] (mice, p.o., complete ischemia and normobaric hypoxia (also A2)), the “protective effects on cerebral hypoxia compared with reference drugs (Table 1)” value was “comparable to those of phenobarbital, phenytoin and carbamazepine”. The ED (30% prolongation) in series [2] turned out to be 29.4 mg/kg. The CA1 neuronal density in series [3] (10 mg/kg) is 519 ± 28 number of cells/mm^2; in series [3] (30 mg/kg), 2713 ± 228 number of cells/mm^2; in series [3] (100 mg/kg), 3326 ± 49 number of cells/mm^2. For the same compound, the “protective effect … (in words)” value in series [3] (30 mg/kg) is recorded as “extremely strong protective effect”; in series [3] (100 mg/kg), “almost completely prevented the delayed neuronal death”. The same compound showed a TD50 in series [4] of 934 mg/kg. For the same compound, the median lethal dose (LD50) at 168 h in series [7] came out at 1890 mg/kg. Moreover, in series [8], the “toxicity (in words)” value was “weak”.

The values are drawn from US5128354A, “Agent for treating ischemic brain damage” (priority 1987, dated 1992).
